Source: ChEMBL document CHEMBL1201862, “PubChem BioAssay data set” (2004)
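How tested: cells in 96-well plates exposed to compound for 48 hours at five concentrations. GI50 marks 50% less growth.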 Active and inactive are the calls of the source. Rule as the data show it: active = GI50 up to about 1.1 µM and inactive = higher.

How the values were obtained:
Assay in all cases: NCI tumour cell line growth inhibition, 48 h
A498 = tested on: A498
A549 = tested on: A549
ACHN = tested on: ACHN
DU-145 = tested on: DU-145
HCT-15 = tested on: HCT-15
HOP-62 = tested on: HOP-62
HT-29 = tested on: HT-29
KM12 = tested on: KM12
M14 = tested on: M14
MCF7 = tested on: MCF7
MDA-N = tested on: MDA-N
NCI-H23 = tested on: NCI-H23
NCI/ADR-RES = tested on: NCI/ADR-RES
OVCAR-3 = tested on: OVCAR-3
SK-MEL-2 = tested on: SK-MEL-2
SK-OV-3 = tested on: SK-OV-3
T47D = tested on: T47D
TK-10 = tested on: TK-10
UACC-62 = tested on: UACC-62
HOP-92 = tested on: HOP-92

| SMILES | GI50 (A498) | GI50 (A549) | GI50 (ACHN) | GI50 (DU-145) | GI50 (HCT-15) [µM] | GI50 (HOP-62) | GI50 (HT-29) | GI50 (KM12) | GI50 (M14) | GI50 (MCF7) | GI50 (MDA-N) | GI50 (NCI-H23) | GI50 (NCI/ADR-RES) | GI50 (OVCAR-3) | GI50 (SK-MEL-2) | GI50 (SK-OV-3) | GI50 (T47D) | GI50 (TK-10) | GI50 (UACC-62) | GI50 (HOP-92) |
| --- | --- | --- | --- | --- | --- | --- | --- | --- | --- | --- | --- | --- | --- | --- | --- | --- | --- | --- | --- | --- |
| O=C(O)c1cc(-c2ccc3c(O)c(O)ccc3c2)ccc1O | 72.9 µM (inactive) | 66.4 µM (inactive) | > 75 µM (inactive) | > 75 µM (inactive) | 41.3 | > 75 µM (inactive) | 18.6 µM (inactive) | 47.4 µM (inactive) | 20.7 µM (inactive) | 13.4 µM (inactive) | 25.2 µM (inactive) | 43.6 µM (inactive) | 33.6 µM (inactive) | > 75 µM (inactive) | > 75 µM (inactive) | > 75 µM (inactive) | > 75 µM (inactive) | > 75 µM (inactive) | 27 µM (inactive) | – |
| CC1(C)CC2(C)OC(=N)C1(C#N)C2(C#N)C#N (centres undefined) | 15.2 µM (inactive) | 23.2 µM (inactive) | 7.64 µM (inactive) | 14.6 µM (inactive) | 2.36 | – | 2.77 µM (inactive) | 16 µM (inactive) | 11.6 µM (inactive) | 8.55 µM (inactive) | 7.08 µM (inactive) | 8.32 µM (inactive) | 13 µM (inactive) | – | 17.4 µM (inactive) | 53.1 µM (inactive) | 10.7 µM (inactive) | 10.8 µM (inactive) | 12.4 µM (inactive) | 1.57 µM (inactive) |
| O=C(O)C12C3CCC(CC3)C1(C(=O)O)C1CCC2C1 (centres undefined) | > 100 µM (inactive) | > 100 µM (inactive) | > 100 µM (inactive) | > 100 µM (inactive) | > 100 | > 100 µM (inactive) | > 100 µM (inactive) | > 100 µM (inactive) | > 100 µM (inactive) | > 100 µM (inactive) | > 100 µM (inactive) | > 100 µM (inactive) | > 100 µM (inactive) | > 100 µM (inactive) | > 100 µM (inactive) | > 100 µM (inactive) | > 100 µM (inactive) | > 100 µM (inactive) | > 100 µM (inactive) | – |
| Nc1ccc(OCCCc2c(-c3ccccc3)[nH]c(N)nc2=O)cc1 | 16.9 µM (inactive) | – | 33.9 µM (inactive) | 48.2 µM (inactive) | > 100 | 20.6 µM (inactive) | < 0.01 µM (active) | 67.8 µM (inactive) | 32.5 µM (inactive) | 40.3 µM (inactive) | 31.9 µM (inactive) | 47.2 µM (inactive) | > 100 µM (inactive) | 25.2 µM (inactive) | – | 21.4 µM (inactive) | 12.2 µM (inactive) | – | 16.1 µM (inactive) | – |
| COc1ccc(-c2ccc(C(=O)C=P(c3ccccc3)(c3ccccc3)c3ccccc3)cc2)cc1 | 12.2 µM (inactive) | 6.95 µM (inactive) | 13.3 µM (inactive) | 14.5 µM (inactive) | 8.59 | 17.9 µM (inactive) | 6.05 µM (inactive) | 13.7 µM (inactive) | 11.6 µM (inactive) | 10.1 µM (inactive) | 13.2 µM (inactive) | 18.8 µM (inactive) | 13 µM (inactive) | 3.41 µM (inactive) | – | 16.9 µM (inactive) | 5.68 µM (inactive) | 10.8 µM (inactive) | 15.2 µM (inactive) | 4.72 µM (inactive) |
| O=C(O)c1nc2ccccc2nc1NCc1ccc(F)cc1 | > 100 µM (inactive) | 57.7 µM (inactive) | – | 99.8 µM (inactive) | 16.6 | > 100 µM (inactive) | 69.5 µM (inactive) | 47.1 µM (inactive) | > 100 µM (inactive) | 86.5 µM (inactive) | > 100 µM (inactive) | 54 µM (inactive) | 30.2 µM (inactive) | 42.2 µM (inactive) | 94.4 µM (inactive) | – | 40.9 µM (inactive) | > 100 µM (inactive) | > 100 µM (inactive) | 95.1 µM (inactive) |
| O=C(Nc1ccc(Cl)cc1)c1cc(S(=O)(=O)N2CCNNC2=O)c(S)cc1Cl | > 100 µM (inactive) | > 100 µM (inactive) | > 100 µM (inactive) | > 100 µM (inactive) | > 100 | – | – | > 100 µM (inactive) | > 100 µM (inactive) | > 100 µM (inactive) | > 100 µM (inactive) | – | > 100 µM (inactive) | > 100 µM (inactive) | > 100 µM (inactive) | – | 35.6 µM (inactive) | 52.5 µM (inactive) | > 100 µM (inactive) | 28.8 µM (inactive) |
| COc1ccc(/C=C2\CCC(CNc3ccc(OC)cc3)C2=O)cc1 (centres undefined) | 30.1 µM (inactive) | 36.4 µM (inactive) | 18.7 µM (inactive) | 39.1 µM (inactive) | 6.78 | 36.4 µM (inactive) | 14.3 µM (inactive) | 10.5 µM (inactive) | 16.1 µM (inactive) | 2.61 µM (inactive) | 14.1 µM (inactive) | 14.6 µM (inactive) | 39.4 µM (inactive) | 17.4 µM (inactive) | – | > 100 µM (inactive) | 18.8 µM (inactive) | 15.6 µM (inactive) | 17.1 µM (inactive) | 18.9 µM (inactive) |
